From patent US20100286139A1, “AMINO PYRAZOLE COMPOUND” (ELI LILLY AND COMPANY, priority 2008, published 2010)

Target: T1, JAK2V617F (Homo sapiens, UniProt O60674, V617F)
T1 construct: expressed in transfected cells; host or cells: Ba/F3 (murine pro-B) cells
Assay: Ba/F3 JAK2V617F cell-based assay (Cellomics ArrayScan HCS)
Set-up: species or system murine
Settings: Ba/F3 cells expressing JAK2V617F, 60 min compound incubation; read-out: relative IC50, inhibition of pSTAT5
Description: JAK2 target inhibition has been evaluated in Ba/F3 expressing JAK2 V617F by Western blot as reported in Wernig et al. (Wernig G, et al. Efficacy of TG101348, a selective JAK2 inhibitor, in treatment of a murine model of JAK2V617F-induced polycythemia vera, Cancer Cell, April; 13(4):311-20). A medium throughput Cellomics assay was established to evaluate the JAK2 target inhibition in Ba/F3 cells expressing JAK2V617F. This assay enables the discovery of an effective therapeutic agent to treat disorders associated with JAK2V617F mutation.
Ba/F3 (murine pro-B) cells expressing JAK2V617F maintained in RPMI 1640 with 10% FBS, 0.07% sodium bicarbonate, 1 mM sodium pyruvate, 1× antibiotic/antimycotic (Invitrogen, Carlsbad, Calif.) and 0.45% glucose (Sigma, St Louis, Mo.). Cells are kept at 37° C. with 5% CO2. The test compound is prepared in 100% DMSO at 10 mM concentration. […]
After cell treatment, 500 μL of 1% formaldehyde solution (made freshly with phosphate-buffered saline (PBS) and kept warm at 37° C.) is added to each well. […] An aliquot of 200 μL of 1 to 10 dilution of Mouse anti-pSTAT5 (pY694) Alexa Fluor 647® in fluorescence activated cell sorting (FACS) buffer is added to the cells. […] Mean fluorescent intensity data are collected and analyzed using Cellomics Arrayscan® VTi. […] The relative IC50 is calculated using a 4 parameter logistic curve fitting analysis with ActivityBase 4.0. […]

T1 sequence (O60674 whole entry V617F): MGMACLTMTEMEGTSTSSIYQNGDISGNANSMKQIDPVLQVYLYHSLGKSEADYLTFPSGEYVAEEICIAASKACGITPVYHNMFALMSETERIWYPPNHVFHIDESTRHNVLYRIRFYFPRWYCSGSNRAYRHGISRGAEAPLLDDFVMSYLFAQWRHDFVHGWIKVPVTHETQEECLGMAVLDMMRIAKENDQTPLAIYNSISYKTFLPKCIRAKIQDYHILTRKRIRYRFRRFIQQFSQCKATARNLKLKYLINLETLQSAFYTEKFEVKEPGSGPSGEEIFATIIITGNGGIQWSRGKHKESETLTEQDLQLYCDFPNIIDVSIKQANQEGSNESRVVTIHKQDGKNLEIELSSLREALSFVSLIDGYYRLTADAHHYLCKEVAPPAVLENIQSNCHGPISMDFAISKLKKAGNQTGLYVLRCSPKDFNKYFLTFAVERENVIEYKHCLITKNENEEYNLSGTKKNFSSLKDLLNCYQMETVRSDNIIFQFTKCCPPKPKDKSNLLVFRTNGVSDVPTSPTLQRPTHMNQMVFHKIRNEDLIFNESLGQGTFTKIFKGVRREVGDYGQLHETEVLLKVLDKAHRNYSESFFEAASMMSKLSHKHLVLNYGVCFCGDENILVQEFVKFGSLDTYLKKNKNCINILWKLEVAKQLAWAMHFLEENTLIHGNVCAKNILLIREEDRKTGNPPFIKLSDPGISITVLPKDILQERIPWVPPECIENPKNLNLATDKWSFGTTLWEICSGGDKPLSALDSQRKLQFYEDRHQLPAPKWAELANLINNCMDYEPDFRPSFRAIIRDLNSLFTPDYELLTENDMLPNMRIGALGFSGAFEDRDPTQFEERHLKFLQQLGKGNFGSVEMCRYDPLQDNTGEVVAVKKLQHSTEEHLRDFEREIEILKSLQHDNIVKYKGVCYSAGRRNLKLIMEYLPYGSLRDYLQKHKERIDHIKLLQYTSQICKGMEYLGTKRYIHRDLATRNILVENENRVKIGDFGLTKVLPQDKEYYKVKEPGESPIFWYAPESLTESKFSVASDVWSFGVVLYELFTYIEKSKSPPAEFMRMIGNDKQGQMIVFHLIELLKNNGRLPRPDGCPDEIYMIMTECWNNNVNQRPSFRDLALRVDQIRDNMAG

Cc1cc(Nc2cc(CN3CCOCC3)c3nc(C)c(Cc4ccc(Cl)cc4F)n3n2)n[nH]1 [3-(4-Chloro-2-fluorobenzyl)-2-methyl-N-(5-methyl-1H-pyrazol-3-yl)-8-(morpholinomethyl)imidazo[1,2-b]pyridazin-6-amine]
IC50: 30 nM
